Results: ChEMBL document CHEMBL2062454, “SAR studies around a series of triazolopyridines as potent and selective PI3Kγ inhibitors” (Bioorg Med Chem Lett, 2012)

Legend:
[1] = target: Phosphatidylinositol 4,5-bisphosphate 3-kinase catalytic subunit alpha isoform (Homo sapiens, UniProt P42336); experiment: Inhibition of PI3Kalpha by high throughput chemoproteomics binding assay
[2] = target: T1, Phosphatidylinositol 4,5-bisphosphate 3-kinase catalytic subunit delta isoform (Homo sapiens, UniProt O00329); experiment: Inhibition of PI3Kdelta by high throughput chemoproteomics binding assay
T1 sequence (O00329 whole entry): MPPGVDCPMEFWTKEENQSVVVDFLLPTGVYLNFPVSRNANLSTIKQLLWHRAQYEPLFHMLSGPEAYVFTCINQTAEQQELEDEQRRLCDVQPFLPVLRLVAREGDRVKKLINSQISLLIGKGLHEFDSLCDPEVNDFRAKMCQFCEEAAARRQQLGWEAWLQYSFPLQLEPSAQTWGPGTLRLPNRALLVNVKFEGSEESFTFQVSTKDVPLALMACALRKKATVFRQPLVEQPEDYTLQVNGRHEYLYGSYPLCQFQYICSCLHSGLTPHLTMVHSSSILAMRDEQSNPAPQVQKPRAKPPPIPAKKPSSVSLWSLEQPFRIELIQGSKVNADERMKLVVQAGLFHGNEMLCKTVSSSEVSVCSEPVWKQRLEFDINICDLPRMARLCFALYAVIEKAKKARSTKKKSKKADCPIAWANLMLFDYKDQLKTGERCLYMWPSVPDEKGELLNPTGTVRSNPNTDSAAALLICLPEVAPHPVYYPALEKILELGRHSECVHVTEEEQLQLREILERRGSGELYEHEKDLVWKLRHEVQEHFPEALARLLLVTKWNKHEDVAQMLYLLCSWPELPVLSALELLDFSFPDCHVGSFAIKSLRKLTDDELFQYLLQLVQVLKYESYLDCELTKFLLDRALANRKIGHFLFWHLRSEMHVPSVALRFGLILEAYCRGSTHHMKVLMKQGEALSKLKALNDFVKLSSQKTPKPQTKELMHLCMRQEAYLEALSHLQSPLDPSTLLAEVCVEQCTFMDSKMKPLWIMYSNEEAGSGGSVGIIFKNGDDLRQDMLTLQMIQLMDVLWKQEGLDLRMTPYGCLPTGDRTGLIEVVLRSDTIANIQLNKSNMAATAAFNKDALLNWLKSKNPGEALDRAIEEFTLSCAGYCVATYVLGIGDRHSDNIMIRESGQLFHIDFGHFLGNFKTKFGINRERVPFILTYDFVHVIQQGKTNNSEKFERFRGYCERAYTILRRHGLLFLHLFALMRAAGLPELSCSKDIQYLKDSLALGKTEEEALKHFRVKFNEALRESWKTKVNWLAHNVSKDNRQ

[3] = target: T2, Phosphatidylinositol 4,5-bisphosphate 3-kinase catalytic subunit gamma isoform (Homo sapiens, UniProt P48736); experiment: Inhibition of PI3Kgamma by high throughput chemoproteomics binding assay
T2 sequence (P48736 whole entry, canonical isoform): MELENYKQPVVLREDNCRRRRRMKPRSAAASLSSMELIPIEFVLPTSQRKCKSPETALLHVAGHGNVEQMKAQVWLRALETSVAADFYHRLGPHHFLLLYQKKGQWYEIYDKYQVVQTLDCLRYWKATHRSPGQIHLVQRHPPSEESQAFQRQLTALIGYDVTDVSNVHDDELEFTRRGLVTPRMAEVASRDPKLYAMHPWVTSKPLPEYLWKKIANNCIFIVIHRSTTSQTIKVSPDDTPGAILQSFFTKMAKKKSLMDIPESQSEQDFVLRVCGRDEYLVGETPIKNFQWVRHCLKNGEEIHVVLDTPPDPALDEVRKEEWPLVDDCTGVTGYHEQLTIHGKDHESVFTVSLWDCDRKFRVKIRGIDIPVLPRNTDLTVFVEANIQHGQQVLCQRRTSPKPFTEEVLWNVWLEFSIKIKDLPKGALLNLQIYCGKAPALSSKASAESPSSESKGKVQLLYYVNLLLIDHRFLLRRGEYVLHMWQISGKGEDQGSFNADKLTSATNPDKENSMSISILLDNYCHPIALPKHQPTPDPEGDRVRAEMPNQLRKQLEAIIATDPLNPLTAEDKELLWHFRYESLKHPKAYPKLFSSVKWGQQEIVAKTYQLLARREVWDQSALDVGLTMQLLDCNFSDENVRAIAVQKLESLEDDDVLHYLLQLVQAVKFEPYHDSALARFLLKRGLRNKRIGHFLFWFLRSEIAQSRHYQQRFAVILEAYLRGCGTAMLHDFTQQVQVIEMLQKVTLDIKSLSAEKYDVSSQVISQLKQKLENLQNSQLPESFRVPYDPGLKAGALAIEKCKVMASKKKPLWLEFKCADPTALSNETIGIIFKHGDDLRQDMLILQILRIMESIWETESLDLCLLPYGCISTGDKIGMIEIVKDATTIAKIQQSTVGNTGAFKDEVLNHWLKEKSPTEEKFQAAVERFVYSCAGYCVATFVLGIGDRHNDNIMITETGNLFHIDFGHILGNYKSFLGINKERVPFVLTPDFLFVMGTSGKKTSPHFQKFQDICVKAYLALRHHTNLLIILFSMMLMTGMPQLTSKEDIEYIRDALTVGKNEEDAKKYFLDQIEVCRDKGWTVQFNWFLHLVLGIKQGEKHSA

[4] = target: T2, Phosphatidylinositol 4,5-bisphosphate 3-kinase catalytic subunit gamma isoform; experiment: Inhibition of PI3Kgamma assessed as inhibition of C5a-induced AKT phosphorylation at Ser473 by cell based assay
Homo sapiens [5] = species on record: Homo sapiens; experiment: Selectivity ratio of IC50 for PI3Kdelta to IC50 for PI3Kgamma
Homo sapiens [6] = species on record: Homo sapiens; experiment: Selectivity ratio of IC50 for PI3Kalpha to IC50 for PI3Kgamma
Homo sapiens [7] = species on record: Homo sapiens; experiment: Selectivity ratio of IC50 for PI3Kbeta to IC50 for PI3Kgamma
[8] = target: Phosphatidylinositol 4,5-bisphosphate 3-kinase catalytic subunit beta isoform (Homo sapiens, UniProt P42338); experiment: Inhibition of PI3Kbeta by high throughput chemoproteomics binding assay
Chain of Phosphatidylinositol 4,5-bisphosphate 3-kinase catalytic subunit beta isoform (P42338 whole entry, canonical isoform): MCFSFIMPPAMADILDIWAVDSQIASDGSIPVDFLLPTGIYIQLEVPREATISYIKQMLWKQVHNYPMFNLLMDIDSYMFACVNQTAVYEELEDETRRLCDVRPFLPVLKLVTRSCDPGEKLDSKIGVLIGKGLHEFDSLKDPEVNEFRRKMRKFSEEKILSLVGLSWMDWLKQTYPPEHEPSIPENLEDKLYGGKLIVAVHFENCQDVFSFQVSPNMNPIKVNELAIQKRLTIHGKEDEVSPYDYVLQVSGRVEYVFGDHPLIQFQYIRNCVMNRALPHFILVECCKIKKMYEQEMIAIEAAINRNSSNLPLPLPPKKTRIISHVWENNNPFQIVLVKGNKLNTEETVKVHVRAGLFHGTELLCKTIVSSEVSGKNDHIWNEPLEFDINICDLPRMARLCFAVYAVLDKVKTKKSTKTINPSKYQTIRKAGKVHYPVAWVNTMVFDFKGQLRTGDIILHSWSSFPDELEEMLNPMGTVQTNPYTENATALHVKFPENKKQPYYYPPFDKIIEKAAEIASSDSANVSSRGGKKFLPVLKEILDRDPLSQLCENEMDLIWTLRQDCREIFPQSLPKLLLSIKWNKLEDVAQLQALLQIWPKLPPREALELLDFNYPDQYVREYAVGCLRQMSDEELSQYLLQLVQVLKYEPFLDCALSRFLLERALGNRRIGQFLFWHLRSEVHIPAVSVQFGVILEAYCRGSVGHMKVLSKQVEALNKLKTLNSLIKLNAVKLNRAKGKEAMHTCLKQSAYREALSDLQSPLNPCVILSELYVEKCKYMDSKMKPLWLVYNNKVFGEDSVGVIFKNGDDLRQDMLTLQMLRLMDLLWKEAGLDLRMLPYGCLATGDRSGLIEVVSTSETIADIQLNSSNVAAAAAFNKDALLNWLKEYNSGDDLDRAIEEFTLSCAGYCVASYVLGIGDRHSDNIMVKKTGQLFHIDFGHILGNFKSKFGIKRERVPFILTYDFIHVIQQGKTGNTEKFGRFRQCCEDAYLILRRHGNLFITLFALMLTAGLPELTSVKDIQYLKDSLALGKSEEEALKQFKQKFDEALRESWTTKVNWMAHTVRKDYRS

[9] = Half life in mouse microsomes; type: ADME, Microsome
[10] = Half life in human microsomes; type: ADME, Microsome
[11] = Half life in rat microsomes; type: ADME, Microsome
[12] = Protein binding in plasma; type: ADME, cell-free; details: read-out: PPB

Chain of Phosphatidylinositol 4,5-bisphosphate 3-kinase catalytic subunit alpha isoform (P42336 whole entry, canonical isoform): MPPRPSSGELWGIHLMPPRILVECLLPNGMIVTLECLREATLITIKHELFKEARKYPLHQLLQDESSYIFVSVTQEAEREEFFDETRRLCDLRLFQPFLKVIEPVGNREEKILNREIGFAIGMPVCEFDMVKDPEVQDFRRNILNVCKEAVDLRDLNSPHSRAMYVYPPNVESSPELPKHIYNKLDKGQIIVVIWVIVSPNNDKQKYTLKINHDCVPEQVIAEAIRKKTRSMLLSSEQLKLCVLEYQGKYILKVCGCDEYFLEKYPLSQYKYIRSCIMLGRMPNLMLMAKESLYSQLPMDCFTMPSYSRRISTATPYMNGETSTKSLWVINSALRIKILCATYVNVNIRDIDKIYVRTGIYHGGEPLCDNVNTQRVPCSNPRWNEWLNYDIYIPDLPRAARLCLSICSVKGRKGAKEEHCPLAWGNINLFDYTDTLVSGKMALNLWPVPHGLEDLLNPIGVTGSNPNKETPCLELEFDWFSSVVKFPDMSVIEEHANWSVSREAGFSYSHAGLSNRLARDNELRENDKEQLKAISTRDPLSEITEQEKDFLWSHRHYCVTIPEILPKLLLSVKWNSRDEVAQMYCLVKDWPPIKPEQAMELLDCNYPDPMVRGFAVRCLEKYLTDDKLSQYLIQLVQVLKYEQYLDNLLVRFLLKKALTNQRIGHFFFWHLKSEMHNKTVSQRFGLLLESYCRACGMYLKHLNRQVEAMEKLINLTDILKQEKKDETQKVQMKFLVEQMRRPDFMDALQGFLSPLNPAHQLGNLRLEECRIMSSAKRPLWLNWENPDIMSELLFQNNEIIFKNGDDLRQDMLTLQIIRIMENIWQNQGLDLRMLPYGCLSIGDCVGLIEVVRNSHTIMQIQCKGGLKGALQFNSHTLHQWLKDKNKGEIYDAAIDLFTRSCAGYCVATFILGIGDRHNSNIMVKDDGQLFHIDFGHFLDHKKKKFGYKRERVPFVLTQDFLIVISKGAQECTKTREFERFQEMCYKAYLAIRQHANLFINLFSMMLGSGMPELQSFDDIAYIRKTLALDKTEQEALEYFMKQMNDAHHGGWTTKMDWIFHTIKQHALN

SMILES: Nc1nc2ccc(-c3cncc(S(=O)(=O)Nc4ccc(Cl)cc4)c3)cn2n1
- IC50 [1]: 3.98 µM
- IC50 [2]: 6.31 µM
- IC50 [3]: 0.631 µM
- IC50 [4]: > 12.6 µM

SMILES: Nc1nc2ccc(-c3cncc(S(=O)(=O)NCC4CC4)c3)cn2n1
- IC50 [1]: 3.16 µM
- IC50 [2]: > 6.31 µM
- IC50 [3]: 0.0158 µM
- IC50 [4]: 2 µM

SMILES: COc1ccc(-c2ccc3nc(NC(C)=O)nn3c2)cc1S(=O)(=O)NCc1ccccc1
- IC50 [1]: > 100 µM
- IC50 [2]: > 10 µM
- IC50 [3]: > 100 µM

SMILES: COc1ccc(-c2ccc3nc(NC(C)=O)nn3c2)cc1OC
- IC50 [1]: 0.316 µM
- IC50 [2]: 2 µM
- IC50 [3]: 0.0398 µM

SMILES: Nc1nc2ccc(-c3cncc(S(=O)(=O)NCc4ccccc4)c3)cn2n1
- IC50 [1]: > 20 µM
- IC50 [2]: 7.94 µM
- IC50 [3]: 0.251 µM
- IC50 [4]: 1.26 µM

SMILES: CC(=O)Nc1nc2ccc(-c3cc(C)c(O)c(C)c3)cn2n1
- Ratio IC50 (Homo sapiens [5]): 5
- IC50 [1]: 12.6 µM
- IC50 [2]: 6.31 µM
- IC50 [3]: 2 µM
- Ratio IC50 (Homo sapiens [6]): 6.3
- Ratio IC50 (Homo sapiens [7]): 10
- IC50 [8]: 20 µM

SMILES: CC(=O)Nc1nc2ccc(-c3cncc(S(C)(=O)=O)c3)cn2n1
- half-life [9]: > 45 min
- half-life [10]: > 45 min
- half-life [11]: > 45 min

SMILES: CS(=O)(=O)c1cncc(-c2cc(C(F)(F)F)c3nc(N)nn3c2)c1
- IC50 [1]: > 100 µM
- IC50 [2]: > 100 µM
- IC50 [3]: > 100 µM

SMILES: CC(C)(C)NS(=O)(=O)c1cncc(-c2cn3nc(N)nc3cc2F)c1
- IC50 [1]: > 100 µM
- IC50 [2]: > 100 µM
- IC50 [3]: 25.1 µM
- IC50 [8]: > 100 µM

SMILES: CC(=O)Nc1nc2cc(C)c(-c3cncc(S(C)(=O)=O)c3)cn2n1
- IC50 [1]: > 100 µM
- IC50 [2]: > 100 µM
- IC50 [3]: > 100 µM
- IC50 [8]: 200 µM

SMILES: CC(=O)Nc1nc2ccc(-c3cccc(-c4ccccc4)c3)cn2n1
- IC50 [1]: > 20 µM
- IC50 [2]: > 100 µM
- IC50 [3]: > 3.98 µM

SMILES: CC(=O)Nc1nc2c(F)cc(-c3cncc(S(C)(=O)=O)c3)cn2n1
- IC50 [1]: > 20 µM
- IC50 [2]: > 20 µM
- IC50 [3]: 0.126 µM
- IC50 [8]: 20 µM

SMILES: CNc1nc2ccc(-c3cncc(S(C)(=O)=O)c3)cn2n1
- IC50 [1]: > 3.98 µM
- IC50 [2]: > 25.1 µM
- IC50 [3]: 0.316 µM

SMILES: CC(=O)Nc1nc2ccc(-c3cncc4ccccc34)cn2n1
- IC50 [1]: > 100 µM
- IC50 [2]: > 100 µM
- IC50 [3]: 3.16 µM

SMILES: CNS(=O)(=O)c1cccc(-c2ccc3nc(NC(C)=O)nn3c2)c1
- IC50 [1]: > 10 µM
- IC50 [2]: 1 µM
- IC50 [3]: 0.251 µM

SMILES: CC(=O)Nc1nc2ccc(-c3cncnc3)cn2n1
- IC50 [1]: > 15.8 µM
- IC50 [2]: > 100 µM
- IC50 [3]: 3.98 µM

SMILES: CNC(=O)c1cccc(-c2ccc3nc(NC(C)=O)nn3c2)c1
- IC50 [1]: > 50.1 µM
- IC50 [2]: > 100 µM
- IC50 [3]: 0.631 µM

SMILES: CC(=O)Nc1nc2ccc(-c3cccnc3)cn2n1
- Ratio IC50 (Homo sapiens [5]): > 60
- IC50 [1]: 15.8 µM
- IC50 [2]: > 31.6 µM
- IC50 [3]: 0.251 µM
- Ratio IC50 (Homo sapiens [6]): > 60

SMILES: CC(=O)Nc1nc2ccc(-c3ccsc3)cn2n1
- IC50 [1]: 0.2 µM
- IC50 [2]: > 20 µM
- IC50 [3]: 0.398 µM

SMILES: CC(C)(C)S(=O)(=O)c1cncc(-c2ccc3nc(N)nn3c2)c1
- IC50 [1]: > 15.8 µM
- IC50 [2]: 3.16 µM
- IC50 [3]: 0.158 µM
- IC50 [4]: > 10 µM

SMILES: CC(C)NS(=O)(=O)c1cncc(-c2ccc3nc(N)nn3c2)c1
- IC50 [1]: 2.51 µM
- half-life [9]: > 45 min
- IC50 [2]: 1.58 µM
- IC50 [3]: 0.0316 µM
- IC50 [4]: 1.58 µM
- half-life [10]: > 45 min
- half-life [11]: > 45 min

SMILES: Nc1nc2ccc(-c3cncc(NS(=O)(=O)c4ccc(Cl)cc4)c3)cn2n1
- IC50 [1]: 0.158 µM
- IC50 [2]: 0.398 µM
- fraction unbound [12]: < 0.01
- IC50 [3]: 0.00631 µM
- IC50 [4]: 2 µM

SMILES: CS(=O)(=O)c1cncc(-c2cc(Cl)c3nc(N)nn3c2)c1
- IC50 [1]: > 100 µM
- IC50 [2]: > 100 µM
- IC50 [3]: 2 µM
- IC50 [8]: > 100 µM

SMILES: CS(=O)(=O)Nc1cccc(-c2ccc3nc(NC(=O)C4CCCCC4)nn3c2)c1
- IC50 [1]: > 100 µM
- IC50 [2]: 0.501 µM
- IC50 [3]: 0.316 µM

SMILES: CC(=O)Nc1nc2ccc(-c3sc(C)nc3C)cn2n1
- IC50 [1]: 6.31 µM
- IC50 [2]: > 100 µM
- IC50 [3]: > 12.6 µM

SMILES: CNS(=O)(=O)c1ccc(-c2ccc3nc(NC(C)=O)nn3c2)cc1
- IC50 [1]: > 100 µM
- IC50 [2]: > 100 µM
- IC50 [3]: > 50.1 µM

SMILES: COc1ccccc1-c1ccc2nc(NC(C)=O)nn2c1
- Ratio IC50 (Homo sapiens [5]): 5
- IC50 [1]: > 100 µM
- IC50 [2]: 31.6 µM
- IC50 [3]: 3.98 µM
- Ratio IC50 (Homo sapiens [6]): > 30
- Ratio IC50 (Homo sapiens [7]): > 30
- IC50 [8]: > 100 µM

SMILES: CC(=O)Nc1nc2ccc(-c3cccc(NS(C)(=O)=O)c3)cn2n1
- IC50 [1]: 5.01 µM
- IC50 [2]: 5.01 µM
- IC50 [3]: 0.316 µM

SMILES: CC(=O)Nc1nc2c(C)cc(-c3cncc(S(C)(=O)=O)c3)cn2n1
- IC50 [1]: > 39.8 µM
- IC50 [2]: > 5.01 µM
- IC50 [3]: 0.1 µM
- IC50 [8]: 20 µM

SMILES: CC(=O)Nc1nc2ccc(-c3cncc(S(C)(=O)=O)c3)c(C)n2n1
- IC50 [1]: > 100 µM
- IC50 [2]: > 39.8 µM
- IC50 [3]: 1 µM
- IC50 [8]: 25.1 µM

SMILES: CC(=O)Nc1nc2ccc(-c3cccc(S(=O)(=O)NCc4ccccc4)c3)cn2n1
- IC50 [1]: > 100 µM
- IC50 [2]: 6.31 µM
- IC50 [3]: 0.501 µM

SMILES: CC(=O)N(C)c1nc2ccc(-c3cccc(S(C)(=O)=O)c3)cn2n1
- IC50 [1]: > 100 µM
- IC50 [2]: > 100 µM
- IC50 [3]: > 31.6 µM

SMILES: CS(=O)(=O)c1cncc(-c2ccc3nc(N)nn3c2)c1
- IC50 [4]: 2 µM

SMILES: CCCCNS(=O)(=O)c1cccc(-c2ccc3nc(NC(C)=O)nn3c2)c1
- IC50 [1]: 10 µM
- IC50 [2]: 1.26 µM
- IC50 [3]: 0.2 µM

SMILES: CS(=O)(=O)Nc1nc2ccc(-c3cncc(S(C)(=O)=O)c3)cn2n1
- IC50 [1]: > 100 µM
- IC50 [2]: > 100 µM
- IC50 [3]: > 39.8 µM

SMILES: CC(=O)Nc1nc2ccc(-c3cncc(S(=O)(=O)NCc4ccccc4)c3)cn2n1
- IC50 [1]: > 3.16 µM
- IC50 [2]: 3.16 µM
- IC50 [3]: 0.0398 µM

SMILES: CC(=O)Nc1nc2ccc(-c3ccc(S(C)(=O)=O)cc3)cn2n1
- IC50 [1]: > 100 µM
- IC50 [2]: > 100 µM
- IC50 [3]: > 100 µM

SMILES: COc1cccc(-c2ccc3nc(NC(C)=O)nn3c2)c1
- IC50 [1]: > 79.4 µM
- IC50 [2]: > 79.4 µM
- IC50 [3]: 0.158 µM

SMILES: CC(=O)Nc1nc2ccc(-c3cncc(CS(N)(=O)=O)c3)cn2n1
- IC50 [1]: > 0.1 µM
- IC50 [2]: > 1 µM
- IC50 [3]: 0.00794 µM

SMILES: CC(=O)Nc1nc2ccc(-c3cccc(S(C)(=O)=O)c3)cn2n1
- IC50 [1]: > 50.1 µM
- IC50 [2]: 3.16 µM
- IC50 [3]: 0.501 µM
- IC50 [4]: > 12.6 µM

SMILES: CC(=O)Nc1nc2ccc(-c3ccncc3)cn2n1
- IC50 [1]: 1.58 µM
- IC50 [2]: > 100 µM
- IC50 [3]: 1.58 µM

SMILES: CN(C)c1nc2ccc(-c3cncc(S(C)(=O)=O)c3)cn2n1
- IC50 [1]: > 100 µM
- IC50 [2]: > 100 µM
- IC50 [3]: 3.16 µM

SMILES: CC(=O)Nc1nc2ccc(-c3cnn(C)c3)cn2n1
- IC50 [1]: > 63.1 µM
- IC50 [2]: > 100 µM
- IC50 [3]: 3.98 µM

SMILES: COc1ccc(-c2ccc3nc(NC(C)=O)nn3c2)cc1
- IC50 [1]: 25.1 µM
- IC50 [2]: 31.6 µM
- IC50 [3]: 1 µM

SMILES: COc1cncc(-c2ccc3nc(NC(C)=O)nn3c2)c1
- IC50 [1]: > 3.98 µM
- IC50 [2]: > 10 µM
- IC50 [3]: 0.0631 µM
